{"source": "patent US5441983A", "about": "“Treatment of infection by enveloped virus with calix(N)arene compounds” (Genelabs Incorporated, priority 1992, dated 1995)", "key": {"[1]": {"tested_on": "HSV-2", "test": "Topical treatment of genital HSV-2 infection, guinea pigs, second study", "details": "for % Animals with Lesions / Lesion Score (AUC) / Mean Peak lesion score: 24 h", "procedure": "In another study using the guinea pig genital model described above, animals were infected with HSV-2, then treated with KY-1 or Y-1 topically at concentrations of 2% or 5% drug. […] Animals were treated and scored daily for severity of infection for 19 days.\n(§2) The MS strain of HSV-2 was utilized for the experimental animal infection. Female Hartley strain guinea pigs (Charles River Breeding Laboratories, Kingston, NY) weighing 250-300 g were inoculated intravaginally with 2.0×10^5 plaque-forming units of HSV-2 one hour after being swabbed for removal of vaginal secretions.\nFormulations of KY-1 or Y-1 were prepared by dissolving the compound in a 1.5% methyl cellulose solution such that final concentration of compound was 2% or 5% (wt/wt). Control animals were given either no treatment (N=10 animals) or treatment with placebo (1.5% methylcellulose solution).\n(§3) To determine the effect of therapy on the development and spread of external genital lesions, lesion severity was scored on a 0-5+ scale through the primary infection period (19-21 days). Lesion score-day areas and virus titer-day areas under the curve, and peak lesion scores and peak virus titers between untreated and placebo-treated or placebo-treated and drug-treated animals were compared using the Mann-Whitney U range sum test. A p-value of 0.05 or less was considered significant.\nAnimals were scored daily for 19 days following inoculation for presence of lesions and severity of lesions (on a 0-5+ point scale). Lesion scores were tabulated as area under the curve of daily lesion score vs. time (days) and peak lesion score observed. A known antiviral agent, acyclovir (ACV) was administered in a 5% formulation to 8 animals as a positive control in the study."}, "[2]": {"tested_on": "rhinovirus", "test": "Inhibition of rhinovirus cytopathic effect in Vero cells", "type": "cell-based", "details": "1-100 μg, 24 h", "method": "(§1) The ability of KY compounds to inhibit cell infection by a rhinovirus and adenoviruses 5 and 7 which are non-enveloped viruses, was similarly studied. Vero cells (10^5) were infected with a rhinovirus in the presence of KY-1, at concentrations ranging between 1-100 μg. Twenty-four hours after virus infection, the cells were examined for cytopathic effect, evidencing viral infection."}, "[3]": {"tested_on": "HSV-1 KOS(PMEA)'", "test": "Inhibition of viral yield, drug-resistant HSV-1 KOS(PMEA)'", "details": "Human alphaherpesvirus 1, HeLa, read-out: ID90", "procedure": "(§4) These compounds tested were the nucleoside analogs acyclovir (ACV), ganciclovir (DHPG), phosphonoformate (PFA), and phosphomethoxyethyladenine (PMEA). Inhibition of viral yield was determined, as above, by infecting Hela cells in the presence of wild type or drug-resistant strains of HSV-1 or HSV-2, and serial dilutions of a selected anti-viral compound, and infecting Vero cells with serial dilutions of the Hela cell lysate, as above.\n(§5) The KOS (HSV-1) and 333 (HSV-2) are wild type viruses; the KOS(PMEA)' and KOS(PFA)' are drug-resistant HSV-1 strains having a DNA polymerase mutation. The 333(DHPG) strain is a drug-resistantHSV-2 strain having a thymidine kinase mutation.\n(§6) The following strains of HSV-1 and HSV-2 virus were used: KOS, a wild type HSV-1 virus; KOS (PMEA) and KOS (PFA), both drug-resistant HSV-1 viruses having a DNA polymerase mutation; 333, a wild type HSV-2 HSV-2 virus, and 333 (DHPG), a drug-resistant HSV-2 virus having a thymidine kinase mutation.\n(§7) After growth at 37° C. for 24 hours in 2 ml of RPMI-1640 containing 2% FCS and penicillin and streptomycin (P/S), the cells were frozen at -70° C. until the time for titration. The cells were freeze/thawed 3 times to release virus from the cells, serially diluted 10 fold, and the serial dilutions were added to Vero cells in culture. After 2 hours incubation at 37° C. the virus was removed and 0.5 ml methycellulose (4K cps) in RPMI-1640 and 2% FCS+P/S was added. Two days later, the medium was removed. The cells were stained in 0.8% crystal violet in 50% ethanol. The plaques formed were counted and the titer was calculated from the fold of dilutions. From the drug dose response, the concentration of each drug required to effect a 90% inhibition of virus yield, the IC90 concentration was determined."}, "[4]": {"tested_on": "HSV-1 and HSV-2", "test": "Viral yield inhibition, HeLa cells, plaque count on Vero cells", "details": "up to 10 μg/ml, FIGS. 29A and 29B, depending on drug and virus", "procedure": "The ability of selected naphthalene-subunit compounds to inhibit HSV-1 and HSV-2 viral yields at selected drug concentrations up to 10 μg/ml was assessed in the viral inhibition assay described in Example 7. Briefly, cultured Hela cells were exposed to serially diluted KY compound and virus, allowed to grow for 24 hours, then freeze/thawed 3 times to release virus particles. Vero cells were infected serial dilutions of the viral lysates were assayed for plaque counts as described in Example 6.\n1×10^6 HeLa S3 were plated in 25 T flasks in 5 ml RPMI-1640+5% FCS+P/S. 24 hours later, the medium was aspirated and replaced with 6×10^6 PFU HSV-1 or HSV-2, and serial dilutions of selected KY compounds, at 10, 5, 2.5, 1.25, and 0.625 μg/ml drug. After growth at 37° C. for 24 hours in 2 ml of RPMI-1640 containing 2% FCS and P/S, the cells were frozen at -70° C. until the time for titration. The cells were freeze/thawed 3 times to release virus from the cells, and serially diluted 10 fold.\n1×10^5 Vero cells were plated in each well of 24 well multi-dish in 1 ml RPMI-1640+5% FCS+P/S+0.1% methylcellulose (15 cps). On the second day, after removal of the medium, the 10 fold serially diluted virus in 100 μl was added in duplicate. […] The plaques formed were counted and the titer was calculated from the fold of dilutions."}, "[5]": {"tested_on": "RSV", "test": "Inhibition of RSV cytopathic effect in HEp2 cells", "type": "cell-based", "details": "human respiratory syncytial virus, HEp-2, read-out: ED50 RSV"}, "[6]": {"tested_on": "HSV glycoproteins gD, gB, and gC", "test": "Identification of KY-1 binding proteins", "parameters": "species or system HSV-1", "details": "FIG. 32B", "text": "In a fourth study, the binding of radiolabeled KY-1 compound to HSV-1 and HSV-2 viral proteins was examined. After compound binding, virus proteins were fractionated by sodium dodecyl sulfate polyacrylamide gel electrophoresis (SDS-PAGE), and the gel patterns developed by autoradiography. In FIG. 32A, lanes A and B in the figure are autoradiographs of HSV-1 proteins in the presence ([…]) and absence (lane B) of mercaptoethanol, and lanes C and D, analogous patterns for HSV-2 proteins. The lane at the right contains the molecular weight markers, as indicated. The major bands of drug binding in HSV-1 have molecular weights, as determined from SDS-PAGE, of 45, 66, and about 130 kilodaltons.\nHSV-1 and HSV-2 virus suspensions were solubilized with SDS and fractionated on SDS-PAGE as above. Each sample was run in triplicate, corresponding to groups D, B, and C in FIG. 32B. The two gels in each group were analyzed by Western blotting as follows: The gels in groups D, B, and C were first reacted with mouse monoclonal antibody specific against HSV glycoprotein gD, gB, and dC, respectively. The antibodies were obtained from Dr. S. Chatterjee from the University of Alabama. The gels were then incubated with alkaline phosphatase-labeled goat antimouse antibody, to label the glycoprotein in each group. […]"}, "[7]": {"tested_on": "HSV-1 binding to Vero cells", "test": "Inhibition of binding of radiolabeled HSV-1 to Vero cells", "type": "cell-based", "details": "10 μg/ml KY-1, FIG. 30", "method": "In one study, the ability of a macrocyclic compound to block HSV binding to infectable cells was examined as described in Example 14. Briefly, Vero cells were exposed to radiolabeled HSV-1 or HSV-2 in the absence of KY compound or in the presence of 10 μg/ml KY-1, and binding of the virus at times up to 4 hours after exposure to the virus was measured. […] In the absence of drug, the amount of bound virus increased steadily over two hours, and slightly from 2-4 hours. By contrast, virus binding to cells peaked at about 1/2 hour in the presence of drug, presumably reflecting the time during which the binding events effective to block virus binding to the cells are equilibrating.\nAt time intervals of 5, 30, 60, 120, and 240 minutes, cells were removed from the suspension, washed two times with PBS, and assayed for bound virus (cpm ^3 H). The results are given in FIG. 30, where the control virus binding is indicated by solid circles, and the drug-inhibited binding, by open rectangles."}, "[8]": {"tested_on": "HSV-1 KOS", "test": "Inhibition of viral yield, wild type HSV-1 KOS", "details": "Human alphaherpesvirus 1, HeLa, read-out: ID90", "procedure": "as §4, §5, §6, §7"}, "[9]": {"tested_on": "adenovirus", "test": "Inhibition of adenovirus cytopathic effect in Vero cells", "type": "cell-based, adenoviruses 5 and 7", "details": "1-100 μg, 24 h", "method": "as §1\nVero cells were infected with adenovirus in the presence of KY-1, also at concentrations ranging between 1-100 μg, and twenty-four hours after virus infection, the cells were examined for cytopathic effect."}, "[10]": {"tested_on": "HSV-2 333 (DHPG)'", "test": "Inhibition of viral yield, drug-resistant HSV-2 333(DHPG)'", "details": "Human alphaherpesvirus 2, HeLa, read-out: ID90", "procedure": "as §4, §5, §6, §7"}, "[11]": {"tested_on": "HSV-2", "test": "Topical treatment of genital HSV-2 infection, guinea pigs, first study", "procedure": "Briefly, female guinea pigs were infected intravaginally with HSV-2, then treated topically three times daily beginning 6 hours or 48 hours after inoculation with HSV-2, as described in Example 13. […] Swabs of vaginal secretion were obtained and assayed for viral activity by a standard CPE assay. The severity of genital lesions was scored on a 0-5+ scale through the period of primary infection (21 days).\nas §2\nIn the first study, groups of 10 guinea pigs were treated topically (0.1 ml intravaginally +0.1 ml on external genital skin) three times daily (approximately every eight hours) for seven days beginning 6 h or 48 h after inoculation with HSV-2.\nTo determine the effect of treatment on vaginal viral replication, swabs of vaginal secretions were obtained on days 1, 3, 5, 7 and 10 after HSV inoculation, placed in a tube containing 2.0 ml of media, vortexed and frozen at -70° C. until titrated for HSV-2. When all samples were collected, they were thawed, diluted serially and HSV-2 titers determined using rabbit kidney cells in a microtiter CPE assay.\nas §3"}, "[12]": {"tested_on": "Influenza A (Taiwan)", "test": "Inhibition of influenza A cytopathic effect (clumping) in MDCK cells", "type": "cell-based, Influenza A virus (A/Taiwan strain)", "details": "Influenza A virus, 24 h, 50% reduction in percent clumped cells, read-out: ED50 Influenza A (Taiwan)", "method": "With virus infection, a cytopathic effect characterized by cell clumping is observed. For each compound tested, drug concentrations of 0.1, 1, 10, 25, and 100 μg/ml were added to cultured cells at the time of virus infection, as detailed in Examples 9 and 11. […] The inhibition of clumping was plotted as a function of drug concentration, to determine the dose effective to produce a 50% reduction in the percent clumped cells, measured with respect to control (no drug treatment).\nAssays to assess the antiviral activity of KY- and Y-compounds in tissue culture were performed in 96-well flat-bottom tissue culture plates (Falcon 307), using conditions similar to those used in the cytotoxicity assays described above. In these assays, compound was tested in quadruplicate by serially diluting the compound in 2% FCS-MEM using serial two-fold dilutions (0.05 ml/well). A 0.05 ml volume of the appropriate virus containing approximately 100 median tissue culture infectious doses (TCID50) was then added to all wells except those set aside as antiviral and tissue control wells. Next, approximately 3×10^3 HEp2 cells (0.1 ml) were added to each well. Control wells containing antiviral and no virus (antiviral control), containing virus but no antiviral (virus control), or containing medium without virus or antiviral (tissue control), were included in each test. The challenge virus was then back titrated. All assay plates were incubated at 35° C. for 5 to 7 days in a 5% CO2 incubator.\nThe anti-influenza A activity of KY compounds was evaluated as described in Example 9, except that MDCK cells (kidney cell line) was used for infection in vitro by influenza virus (strain A/Taiwan)."}}, "data": [{"smiles": "O=S(=O)(O)c1cc2cc(S(=O)(=O)O)c3c(O)c2c(O)c1Cc1c(S(=O)(=O)O)cc2cc(S(=O)(=O)O)c(c(O)c2c1O)Cc1c(S(=O)(=O)O)cc2cc(S(=O)(=O)O)c(c(O)c2c1O)Cc1c(S(=O)(=O)O)cc2cc(S(=O)(=O)O)c(c(O)c2c1O)C3", "note": "[KY-1]", "values": [{"measurement": "% Animals with Lesions", "setting": "[1]; 2%", "result": 70, "unit": "%"}, {"measurement": "Lesion Score (AUC)", "setting": "[1]; 2%", "result": 16.2}, {"measurement": "Mean Peak lesion score", "setting": "[1]; 2%", "result": 2.2}, {"measurement": "% Animals with Lesions", "setting": "[1]; 6%", "result": 50, "unit": "%"}, {"measurement": "Lesion Score (AUC)", "setting": "[1]; 6%", "result": 17.5}, {"measurement": "Mean Peak lesion score", "setting": "[1]; 6%", "result": 1.7}, {"measurement": "lesions, in words", "setting": "[1]; 24 hours post-infection, 6% KY-1 or Y-1, 2% KY-1", "result": "reduced numbers of lesion bearing animals and reduced severity of lesions"}, {"measurement": "reduction in cell clumping, rhinovirus", "setting": "[2]", "result": "No reduction in cell clumping"}, {"measurement": "IC90", "setting": "[3]", "result": 2.6, "unit": "µg/mL"}, {"measurement": "dose dependent drop in viral yield", "setting": "[4]", "result": "3-5 orders of magnitude"}, {"measurement": "EC50", "setting": "[5]", "result": 0.19, "unit": "µg/mL"}, {"measurement": "proteins bound (major bands)", "setting": "[6]", "result": "correspond in molecular weight, to HSV glycoproteins gD, gB, and gC"}, {"measurement": "time at which virus binding to cells peaked", "setting": "[7]", "result": "about 1/2"}, {"measurement": "IC90", "setting": "[8]", "result": 1.9, "unit": "µg/mL"}, {"measurement": "reduction in cell clumping, adenovirus", "setting": "[9]", "result": "No reduction in cell clumping"}, {"measurement": "IC90", "setting": "[10]", "result": 3.7, "unit": "µg/mL"}, {"measurement": "Lesion score Area Under Curve", "setting": "[11]; 1%, +6 h", "result": 30.8}, {"measurement": "Mean Peak lesion score", "setting": "[11]; 1%, +6 h", "result": 2.9}, {"measurement": "AUC, in words", "setting": "[11]; 1%, +6h, P<0.01", "result": "significantly reduced the AUC"}, {"measurement": "Lesion score Area Under Curve", "setting": "[11]; 1%, +48 h", "result": 46.6}, {"measurement": "Mean Peak lesion score", "setting": "[11]; 1%, +48 h", "result": 4.3}, {"measurement": "lesion development (AUC and mean peak lesion scores) versus placebo", "setting": "[11]; 5%, 6h after infection, P <0.001", "result": "significantly reduced"}, {"measurement": "Lesion score Area Under Curve", "setting": "[11]; 5%, +6 h", "result": 3.8}, {"measurement": "Mean Peak lesion score", "setting": "[11]; 5%, +6 h", "result": 0.8}, {"measurement": "Lesion score Area Under Curve", "setting": "[11]; 5%, +48 h", "result": 45.7}, {"measurement": "Mean Peak lesion score", "setting": "[11]; 5%, +48 h", "result": 3.7}, {"measurement": "EC50", "setting": "[12]", "result": "> 188", "unit": "µg/mL"}]}]}
